We go through one molecule from patent US11084783B2, “O-alkyl-benzylideneguanidine derivatives and therapeutic use for the treatment of disorders associated with an accumulation of misfolded proteins” (INFLECTIS BIOSCIENCE, priority 2014, dated 2021).

Where only a bound is given, the exact number is not on record here.

Holding throughout (type): cell-based
Assay [1] deals with HeLa cells. As to the kind of experiment: Cytoprotection from ER stress (tunicamycin), cell viability by WST-8. Also noted: key to Cytoprotection from ER stress compared to guanabenz: +: lower cytoprotective effect compared to Guanabenz; ++: similar cytoprotective effect compared to Guanabenz; +++: higher cytoprotective effect compared to Guanabenz. As to conditions: HeLa cells, 6 hour exposure to tunicamycin 5 μg/mL, compounds 0.5-10 μM, viability 48 h or 72 h. The source says:
Cytoprotection against ER stress can be measured by a suitable assay. For example, cytoprotection can be measured in HeLa cells in which ER stress is elicited by the addition of media containing tunicamycin, a mixture of homologous nucleoside antibiotics that inhibits the UDP-HexNAc: polyprenol-P HexNAc-1-P family of enzymes and is used to induce unfolded protein response. Cell viability can be detected in the presence and absence of inhibitor compounds after a set period of time, by measuring the reduction of WST-8 into formazan using a standard cell viability kit (such as Cell Viability Counting Kit-8 from Dojindo). Cytoprotection from ER stress is measured in terms of the percentage increase in viable cells (relative to control) after ER stress. Further details of a suitable assay are set forth in the accompanying Examples section.
This assay is described in Tsaytler et al. (Science 2011). HeLa Cells were cultured in Eagle's Minimum Essential Medium (EMEM) supplemented with Glutamine, Sodium Pyruvate, Non-Essential Amino Acids, Penicillin and Streptomycin containing 10% Foetal Bovine Serum (FBS), at 37° C. in 5% CO2 atmosphere. Cells were plated in 96 well plates at a density of 17,000 cells/mL the day before the treatment. ER stress was elicited by addition of 5 μg/mL tunicamycin (Sigma-Aldrich) together with PPP1R15A inhibitors (0.5-10 μM). Media were changed 6h later with fresh media and the cytoprotection was maintained by the addition of PPP1R15A inhibitors (0.5-10 μM). Cell viability was assessed by measuring the reduction of WST-8 into formazan using Cell Counting Kit-8 (Sigma) according to the supplier's recommendation, 48 h or 72h after tunicamycin treatment. Cytoprotection from ER stress is measured in terms of cytoprotective potency effect compared to the reference compound Guanabenz (Tsaytler et al., Science 2011) after ER stress: • ‘+’ no cytoprotective effect; • ‘+’ lower cytoprotective effect compared to Guanabenz; • ‘++’ similar cytoprotective effect compared to Guanabenz; • ‘+++’ higher cytoprotective effect compared to Guanabenz.
Table 1 summarizes the results of cytoprotective effect of different compounds of the invention, compared to guanabenz, after the stress induced by a 6 hour exposure of tunicamycin.

Assay [2] deals with T1, human alpha2A receptor (Homo sapiens, UniProt P08913).
T1 construct: CHO cells endogenously expressing human alpha2A receptor; endogenous in cells; host or cells: CHO cells
T1 sequence (P08913 1-465): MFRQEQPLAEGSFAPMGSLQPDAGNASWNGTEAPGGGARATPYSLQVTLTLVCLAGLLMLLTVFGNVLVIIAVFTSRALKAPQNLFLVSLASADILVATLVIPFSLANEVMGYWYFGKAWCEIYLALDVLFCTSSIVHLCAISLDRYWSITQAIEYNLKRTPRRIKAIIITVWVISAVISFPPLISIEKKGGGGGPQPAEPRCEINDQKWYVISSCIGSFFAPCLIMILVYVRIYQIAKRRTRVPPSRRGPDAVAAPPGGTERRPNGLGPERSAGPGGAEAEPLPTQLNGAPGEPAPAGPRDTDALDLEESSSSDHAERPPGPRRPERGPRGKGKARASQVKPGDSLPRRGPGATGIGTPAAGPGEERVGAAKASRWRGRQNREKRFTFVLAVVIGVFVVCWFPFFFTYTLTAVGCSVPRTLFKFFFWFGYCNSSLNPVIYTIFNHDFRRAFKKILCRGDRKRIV
In words: Functional GPCR assay for adrenergic α2A receptor (CellKey detection method). To be noted: agonist activity, CHO cells expressing human alpha2A receptor, impedance (CellKey); read-out: Functional adrenergic alpha2 receptor assay EC50. Here is the method:
The agonist activity of compounds was evaluated on CHO cells […] expressing human alpha2A receptor and was determined by measuring their effects on impedance modulation using the CellKey detection method. Cells were seeded onto 96-well plate at density of 6×10^4 cells/well in HBSS buffer (Invitrogen)+20 mM HEPES (Invitrogen) with 0.1% BSA and are allowed to equilibrate for 60 min at 28° C. before the start of the experiment. Plates were placed onto the system and measurements were made at a temperature of 28° C. Solutions were added simultaneously to all 96 wells using an integrated fluidics system: HBSS (basal control), reference agonist at 100 nM (stimulated control), reference agonist (EC50 determination) or the test compounds. Impedance measurements are monitored for 10 minutes after ligand addition. The standard reference agonist is epinephrine, which is tested in each experiment at several concentrations to generate a concentration-response curve from which its EC50 value is calculated.
Dose-response data from test compounds were analysed with Hill software using non-linear regression analysis of the concentration-response curves generated with mean replicate values using Hill equation curve fitting.

For assay [3], the system named is Min6 cells. As to the kind of experiment: Protection against accumulation of misfold prone Insulin Akita. As to conditions: Min6 cells nucleofected with Insulin Akita, viability 9 days after treatment. The method, then: Min6 cells were nucleofected with Insulin^Akita mutant constructs and seeded in 96 well-plates at 300,000 cells/mL and 24h later, cells were treated with molecules or left untreated. As a control, cells were nucleofected with non-relevant plasmid. 6 days later, a selective agent was added (G418). Cell viability was assessed by measuring the reduction of WST-8 into formazan using Cell Counting Kit-8 (Sigma) according to the supplier's recommendation, 9 days after treatment.

Assay [4] has as its system Min6 insulinoma cell. As to the kind of experiment: Min6 cell line cytoprotection from ER stress (tunicamycin). As to conditions: 6 hour exposure to tunicamycin 2.5 μg/mL, different concentrations, viability 72h. Here is the method:
(§1) Cells were plated in 96 well plates at a density of 0.5.10^6 cells/mL for Min6 cell line, 0,4.10^6 cells/mL for INS1 cell line the day before the treatment. ER stress was elicited by addition of 2.5 μg/mL tunicamycin (Sigma Aldrich) together with phosphatases inhibitors. Media were changed 6h later with fresh media and the cytoprotection was maintained by the addition of phosphatases inhibitors. Cell viability was assessed by measuring the reduction of WST-8 into formazan using Cell Counting Kit-8 (Sigma) according to the supplier's recommendation, 72h after tunicamycin treatment.

In assay [5] the test system is INS1 insulinoma cell. As to the kind of experiment: INS1 cell line cytoprotection from ER stress (tunicamycin). To be noted: 6 hour exposure to tunicamycin 2.5 μg/mL, different concentrations, viability 72h. Here is the method: as §1
Assay [6] relates to mouse embryonic fibroblasts lipofected with poly I:C. As to the kind of experiment: In vitro inflammation/infection model: poly I:C induced mouse embryonic fibroblasts. To be noted: 25 μM, 6h, IFN-beta ELISA in culture supernatants. Here is the method: Mouse Embryonic Fibroblasts (MEFs) were lipofected with poly I:C and treated with […] compounds of the invention (25 μM) for 6h. After 6h of culture, elF2alpha-phosphorylation (elF2a-P) and PPP1R15A (GADD34) expression was monitored by western blotting, while type-1 Interferon(IFN)-beta production was quantified in culture supernatants by ELISA. Control (nt) and poly I:C/DMSO are respectively negative and positive controls. Poly I:C (polyinosinic:polycytidylic acid or polyinosinic-polycytidylic acid sodium salt) is an immunostimulant used to simulate viral infections. Poly I:C which is structurally similar to double-stranded RNA, is known to interact with toll-like receptor 3 which is expressed in the intracellular compartments of B-cells and dendritic cells. Guanabenz (25 μM) was used as reference inhibitory compound.
MEFs were cultured in DMEM, 10% FCS (HyClone, Perbio), 100 units/ml penicillin, 100 μg/ml streptomycin, 2 mM glutamine, 1× MEM non-essential amino acids and 50 μM 2-mercaptoethanol. MEFS were treated for the indicated time with 10 μg/ml poly I:C (InvivoGen) in combination with lipofectamine 2000 (Invitrogen).
Cells were lysed in 1% Triton X-100, 50 mM Hepes, 10 mM NaCl, 2.5 mM MgCl2, 2 mM EDTA, 10% glycerol, supplemented with Complete Mini Protease Inhibitor Cocktail Tablets (Roche). Protein quantification was performed using the BCA Protein Assay (Pierce). 25-50 μg of Triton X-100-soluble material was loaded on 2%-12% gradient or 8% SDS-PAGE before immunoblotting and chemi-luminescence detection (SuperSignal West Pico Chemi-luminescent Substrate, Pierce). Rabbit polyclonal antibodies recognizing GADD34 (C-19) were from Santa Cruz Biotechnology and anti-elF2alpha[pS^52] were from Invitrogen.
IFN-beta quantification in culture supernatant was performed using the Mouse Interferon Beta ELISA kit (PBL Interferon Source) according to manufacturer instructions.
Normal response of MEFs to poly I:C is characterized by PPP1R15A expression, increase in elF2alpha-P (variable in time and related to the levels PPP1R15A expression) mediated by PKR activation and type-I IFN production (range 500 to 700 pg/ml). Knock out PPP1R15A MEFs are unable to produce this cytokine in response to poly I:C.
The potency of compounds of the invention to inhibit PPP1R15A was evaluated by measuring the increase of elF2alpha phosphorylation, the decrease of PPP1R15A expression due to its own pharmacological inhibition resulting in general protein synthesis inhibition and type-I IFN production.
For orientation: ELISA stands for enzyme-linked immunosorbent assay.

Take `CCONC(=N)N/N=C/c1ccncc1Cl` [Compound 16, 2-[(3-chloropyridin-4-yl)methylidene]-N-ethoxyhydrazinecarboximidamide]: the “Cytoprotection from ER stress compared to guanabenz” value in assay [1] is recorded as “+”. The EC50 in assay [2] is more than 33.3 µM. For the same molecule, the “prevention of cell death associated with accumulation of misfold prone Insulin Akita (FIG. 6)” value in assay [3] is given as “prevent cell death”. Also, the “prevention of Min6 insulinoma cell death (FIG. 7)” value in assay [4] is on record as “prevent Min6 insulinoma cell death”. In addition, in assay [5], the “prevention of INS1 insulinoma cell death (FIG. 8)” value was “prevent INS1 insulinoma cell death”. Further, the “prevention of type-I IFN production (FIG. 9)” value in assay [6] is reported as “prevent type-I IFN production”.

The term EC50 denotes the concentration needed to bring the measured effect to its halfway point.
